Consider 7 compounds from patent EP0514935B1, “Novel benzopyran derivatives and processes for the preparation thereof” (KOREA RESEARCH INSTITUTE OF CHEMICAL TECHNOLOGY, priority 1991, dated 1992).

Read-outs that look alike come from different tables or passages of the source. Bounds are passed on as bounds.

Data set [1] has as its system spontaneously hypertensive rats. The data set is described as follows: Blood pressure-lowering activity, tail-cuff method. It counts as in vivo. The settings on record: maximum lowering effect on systolic blood pressure. As for the experimental part:
The activity of the formula(I) compounds of the present invention was tested by employing the tail-cuff method described in references [see, e.g., I. M. Claxton, M. G. Palfreyman, R. H. Poyster and R. L. Whiting, European Journal of Pharmacology 37, 179(1976)] . After administration of the test compound of formula(I) to sets of spontaneously hypertensive rats, maximum blood pressure-lowering activity was determined by measuring the lowering effect on systolic blood pressure.

Data set [2] has as its system Guinea pig trachea muscle. Briefly: Relaxation activity on respiratory smooth muscle contracted with histamine. It counts as cell-based. The settings on record: Cavia porcellus, concentration relaxing 50% of the contraction, read-out: Trachea Relaxation Activity, EC₅₀. As for the experimental part: Further, the relaxation activity on respiratory smooth muscle was determined as follows: Guinea pig trachea muscle was made to be contracted with histamine; and then the test compound of the present invention was administered thereto; and the concentration of the test compound which was required in relaxing 50% level of the contraction was determined and designated as EC₅₀.

Data set [3] can be described thus: Toxicity test, oral administration, deaths over 48 hours. The settings on record: rat, in vivo, rats, orally administered; for mortality at 48 h: deaths over 48 hours, read-out: Lethal Rate(%); for LD50 at 48 h: amount of test compound which causes a 50% lethal rate, read-out: LD₅₀. As to the method: Six pairs(each pair consisting of a male and a female) of the rats were used in the test. The number of the rats which died over a period of 48 hours was reported.

Take `CC1(C2OCCO2)C=C(N2CCCC2=O)c2cc(OC(F)(F)F)ccc2O1` (racemic) [Example 9, 2-(2'' -(1'' ,3'' -dioxolane))-2-methyl-4-(2' -oxo-1' -pyrrolidinyl)-6-trifluoromethoxy-2H-1-benzopyran]: in data set [1] (Dose 0.1 mg/kg), the “Blood Pressure-Lowering Activity” value stood at 20.6%. For the same compound, in data set [2], the EC50 came out at 17.1 µM.
In the case of `COC(OC)C1(C)C=C(N2CCCC2=O)c2cc(C#N)ccc2O1` (single isomer, unassigned) [16(-), 2-dimethoxymethyl-2-methyl-4-(2' -oxo-1' -pyrrolidinyl)-6-cyano-2H-1-benzopyran], the “Blood Pressure-Lowering Activity” value in data set [1] (Dose 0.3 mg/kg) is on record as 28%; in data set [1] (Dose 1.0 mg/kg), 55%. For the same compound, in data set [2], the EC50 turned out to be 140 µM.
For the compound `COC(OC)C1(C)C=C(N2CCCC2=O)c2cc(C#N)ccc2O1` (racemic) [Example 1, 2-dimethoxymethyl-2-methyl-4-(2' -oxo-1' -pyrrolidinyl)-6-cyano-2H-1-benzopyran], the figures for the “Blood Pressure-Lowering Activity” value in data set [1] (Dose 0.3 mg/kg) and in data set [1] (Dose 1.0 mg/kg) were 24% and 43%, respectively. Moreover, in data set [2], the EC50 is 150 µM. For the same compound, the mortality at 48 h amounted to 0% in data set [3] (Dose 10 mg/kg), 8% in data set [3] (Dose 20 mg/kg) and 25% in data set [3] (Dose 50 mg/kg). Besides, the LD50 at 48 h in data set [3] was more than 50 mg/kg.
Consider `CC1(C2OCCO2)C=C(N2CCCC2=O)c2cc(C#N)ccc2O1` (racemic) [Example 7, 2-(2'' -(1'' ,3'' -dioxolane))-2-methyl-4-(2' -oxo-1' -pyrrolidinyl)-6-cyano-2H-1-benzopyran], for which the “Blood Pressure-Lowering Activity” value in data set [1] (Dose 1.0 mg/kg) amounted to 41%. In addition, the EC50 in data set [2] worked out at 50 µM.
Regarding `COC(OC)C1(C)C=C(N2CCCC2=O)c2cc(S(=O)(=O)c3ccccc3)ccc2O1` (racemic) [Example 3, 2-dimethoxymethyl-2-methyl-4-(2' -oxo-1' -pyrrolidinyl)-6-phenylsulfonyl-2H-1-benzopyran], the “Blood Pressure-Lowering Activity” value in data set [1] (Dose 0.1 mg/kg) stood at 6.9%. Moreover, in data set [2], the EC50 amounted to 10.9 µM.
With `CC1(C2OCCCO2)C=C(N2CCCC2=O)c2cc([N+](=O)[O-])ccc2O1` (racemic) [Example 11, 2-(2'' -(1'' ,3'' -dioxane))-2-methyl-4-(2' -oxo-1' -pyrrolidinyl)-6-nitro-2H-1-benzopyran], the “Blood Pressure-Lowering Activity” value in data set [1] (Dose 0.1 mg/kg) was 48%. In data set [2], the EC50 came to 50 µM. For the same compound, the mortality at 48 h in data set [3] (Dose 10 mg/kg) amounted to 0%; in data set [3] (Dose 20 mg/kg), 35%; in data set [3] (Dose 50 mg/kg) it was 35%. In addition, the LD50 at 48 h in data set [3] is more than 50 mg/kg.
On to `CC1(C)Oc2ccc(C#N)cc2C(N2CCCC2=O)C1O` (stereo not drawn) [Cromakalim(-), Cromakalim, reference compound], for which the “Blood Pressure-Lowering Activity” value in data set [1] (Dose 0.3 mg/kg) stood at 39%. The EC50 in data set [2] amounted to 2.7 µM.
